Data as given in ChEMBL document CHEMBL5543153, “Discovery of a Potent Dual Son of Sevenless 1 (SOS1) and Epidermal Growth Factor Receptor (EGFR) Inhibitor for the Treatment of Prostate Cancer” (J Med Chem, 2024).
The source made the active and inactive calls. The rule behind the calls is not given here.

Columns and labels:
[1] = target: T1, Son of sevenless homolog 1 (Homo sapiens, UniProt Q07889); assay: Inhibition of human recombinant SOS1
T1 sequence (Q07889 whole entry): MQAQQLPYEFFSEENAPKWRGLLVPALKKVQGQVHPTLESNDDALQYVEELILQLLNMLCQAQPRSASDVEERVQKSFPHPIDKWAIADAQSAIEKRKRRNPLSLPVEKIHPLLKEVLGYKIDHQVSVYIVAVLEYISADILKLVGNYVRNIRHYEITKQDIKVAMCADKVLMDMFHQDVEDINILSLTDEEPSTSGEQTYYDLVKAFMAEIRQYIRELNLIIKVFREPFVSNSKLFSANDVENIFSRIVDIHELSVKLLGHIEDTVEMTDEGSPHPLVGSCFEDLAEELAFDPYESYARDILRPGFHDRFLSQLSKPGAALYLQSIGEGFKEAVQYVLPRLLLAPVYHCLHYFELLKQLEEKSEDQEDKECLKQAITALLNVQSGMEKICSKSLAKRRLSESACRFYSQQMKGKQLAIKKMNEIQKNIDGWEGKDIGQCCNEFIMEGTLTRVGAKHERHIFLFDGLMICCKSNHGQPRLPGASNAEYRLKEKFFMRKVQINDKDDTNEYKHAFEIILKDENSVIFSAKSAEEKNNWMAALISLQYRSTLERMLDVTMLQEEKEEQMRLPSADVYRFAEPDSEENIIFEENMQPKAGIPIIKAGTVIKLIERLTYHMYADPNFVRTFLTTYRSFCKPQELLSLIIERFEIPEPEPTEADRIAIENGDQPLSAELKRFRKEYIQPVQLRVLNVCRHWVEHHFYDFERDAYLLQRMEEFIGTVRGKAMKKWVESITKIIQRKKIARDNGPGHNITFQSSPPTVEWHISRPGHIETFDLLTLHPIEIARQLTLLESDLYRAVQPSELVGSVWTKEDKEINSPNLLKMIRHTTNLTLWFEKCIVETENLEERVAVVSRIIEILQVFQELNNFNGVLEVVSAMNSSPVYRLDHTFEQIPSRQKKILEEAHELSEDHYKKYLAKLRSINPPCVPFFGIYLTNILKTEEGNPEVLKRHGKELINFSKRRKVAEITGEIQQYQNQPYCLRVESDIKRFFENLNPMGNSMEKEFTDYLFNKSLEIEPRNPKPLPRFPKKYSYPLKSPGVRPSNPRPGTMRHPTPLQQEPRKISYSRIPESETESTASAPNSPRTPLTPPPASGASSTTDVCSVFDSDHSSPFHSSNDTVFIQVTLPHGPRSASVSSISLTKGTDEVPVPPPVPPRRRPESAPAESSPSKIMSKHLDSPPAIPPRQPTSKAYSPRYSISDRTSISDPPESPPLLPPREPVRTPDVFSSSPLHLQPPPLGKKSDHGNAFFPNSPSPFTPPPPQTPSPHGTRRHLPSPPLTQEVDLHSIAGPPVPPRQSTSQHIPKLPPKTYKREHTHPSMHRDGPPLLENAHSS

DLD-1 = assay: Antiproliferative activity against human DLD-1 cells assessed as inhibition of cell growth incubated for 72 hrs by MTT assay; assay type: functional, cell-based
Calu-1 = assay: Antiproliferative activity against human Calu-1 cells harboring KRAS G12C mutant assessed as inhibition of cell growth incubated for 72 hrs by MTT assay; assay type: functional, cell-based; conditions: Calu-1, 72 h
SK-LU-1 = assay: Antiproliferative activity against human SK-LU-1 cells harboring KRAS G12D mutant assessed as inhibition of cell growth incubated for 72 hrs by MTT assay; assay type: functional, cell-based; conditions: SK-LU-1, 72 h
PC-3 [2] = assay: Antiproliferative activity against human PC-3 cells transfected with SOS1 and EGFR shRNA assessed as inhibition of cell growth incubated for 72 hrs by MTT assay; assay type: functional, cell-based; conditions: PC-3, 72 h
[3] = target: T2, Son of sevenless homolog 1 (Homo sapiens) (UniProt Q07889); assay: Inhibition of SOS1 in human PC-3 cells assessed as downregulation of RAS-GTP expression at 0.5 uM incubated for 15 mins by Western blotting analysis; assay type: cell-based
T2 sequence (whole entry): T1 sequence (Q07889 whole entry)

PC-3 [4] = assay: Induction of apoptosis in human PC-3 cells assessed as viable cells at 2.5 uM by Annexin V-FITC staining based flow cytometry (reference value: 94.9%); assay type: functional; conditions: read-out: Activity
PC-3 [5] = assay: Induction of apoptosis in human PC-3 cells assessed as late apoptotic cells at 0.5 uM by Annexin V-FITC staining based flow cytometry (reference value: 1.93%); assay type: functional
PC-3 [6] = assay: Induction of apoptosis in human PC-3 cells assessed as necrotic cells at 0.5 uM by Annexin V-FITC staining based flow cytometry (reference value: 0.48%); assay type: functional
PC-3 [7] = assay: Induction of apoptosis in human PC-3 cells assessed as upregulation of cleaved PARP expression by Western blotting analysis; assay type: functional, cell-based
PC-3 [8] = assay: Inhibition of colony formation in human PC-3 cells incubated for 15 days by crystal violet staining based microscopic analysis; assay type: functional, cell-based; conditions: time 15.0 day
PC-3 [9] = assay: Induction of cell cycle arrest in human PC-3 cells assessed as accumulation of cells at G1 phase at 12.5 uM by PI staining based flow cytometry (reference value: 75.66%); assay type: functional
PC-3 [10] = assay: Induction of cell cycle arrest in human PC-3 cells assessed as accumulation of cells at G2 phase at 0.5 uM by PI staining based flow cytometry (reference value: 7.75%); assay type: functional
PC-3 [11] = assay: Induction of cell cycle arrest in human PC-3 cells assessed as accumulation of cells at S phase at 0.5 uM by PI staining based flow cytometry (reference value: 16.58%); assay type: functional
HUVEC = assay: Antiangiogenic activity in HUVEC cells assessed as reduction in tube master junction at 0.5 to 12.5 uM incubated for 8 hrs by matrigel based microscopic analysis; assay type: functional, cell-based; conditions: Homo sapiens, dose 0.5-12.5 µM
PC-3 [12] = assay: Antitumor activity against human PC-3 cells xenografted in BALB/c mouse assessed as reduction in tumor volume at 5 mg/kg,ip administrated once every 4 days for 24 days; assay type: functional, organism-based; conditions: time 24.0 day
PC-3 [13] = assay: Antitumor activity against human PC-3 cells xenografted in BALB/c mouse assessed as increase in apoptosis in tumor tissue at ip administrated once every 4 days for 24 days by TUNEL staining based immunohistochemical analysis; assay type: functional, organism-based; conditions: time 24.0 day
PC-3 [14] = assay: Antitumor activity against human PC-3 cells xenografted in BALB/c mouse assessed as reduction in number of Ki67-positive cells in tumor tissue at ip administrated once every 4 days for 24 days by DAPI staining based immunohistochemical analysis; assay type: functional, organism-based; conditions: time 24.0 day
[15] = Toxicity in BALB/c mouse xenografted with human PC-3 cells assessed as spleen pathological change at 5 mg/kg,ip administrated once every 4 days for 24 days by hematoxylin and eosin staining based analysis; assay type: organism-based; conditions: in vivo, 576 h, time 24 day
[16] = Toxicity in BALB/c mouse xenografted with human PC-3 cells assessed as lung pathological change at 20 mg/kg,ip administrated once every 4 days for 24 days by hematoxylin and eosin staining based analysis; assay type: organism-based; conditions: in vivo, 576 h, time 24 day
[17] = Toxicity in BALB/c mouse xenografted with human PC-3 cells assessed as change in AST level at 5 mg/kg,ip administrated once every 4 days for 24 days by automatic biochemical analyzer; assay type: organism-based; conditions: in vivo, 576 h, time 24 day

With `COc1cc2ncnc(N[C@H](C)c3cccc(F)c3)c2cc1OC1CCOCC1` the IC50 [1] was 42.1 nM, the Activity (DLD-1) was “Active” and the IC50 (Calu-1) was 550 nM. For the same compound, the IC50 (SK-LU-1) was 550 nM, the IC50 (PC-3 [2]) was > 10000 nM and the inhibition [3] was “Active”. For the same compound, the viability at 2.5 µM (PC-3 [4]) was 79.1%, the Activity (PC-3 [5]) was 2.74% and the Activity (PC-3 [6]) was 0.6%. The Activity (PC-3 [7]) was “Dose-Dependent Effect”, the inhibition (PC-3 [8]) was “Dose-Dependent Effect” and the Activity (PC-3 [9]) was 87.38%. The Activity (PC-3 [10]) was 9.71%, the Activity (PC-3 [11]) was 10.84% and the Activity (HUVEC) was “Active”. The Activity (PC-3 [12]) was “Active”, the Activity (PC-3 [13]) was “Dose-Dependent Effect” and the Activity (PC-3 [14]) was “Dose-Dependent Effect”. The Activity [15] was “Toxic”, the Activity [16] was “Toxic” and the Activity [17] was “Non-Toxic”.
